{"source": "paper PMC6934184", "about": "“Selective DNA-PKcs inhibition extends the therapeutic index of localized radiotherapy and chemotherapy” (The Journal of Clinical Investigation, 2019)", "target": "T1, TYRO3 (RSE) (Homo sapiens, UniProt Q06418)", "T1 construct": "purchased Thermo Fisher Scientific (Life Technologies) SelectScreen", "T1 sequence (Q06418 41-890)": "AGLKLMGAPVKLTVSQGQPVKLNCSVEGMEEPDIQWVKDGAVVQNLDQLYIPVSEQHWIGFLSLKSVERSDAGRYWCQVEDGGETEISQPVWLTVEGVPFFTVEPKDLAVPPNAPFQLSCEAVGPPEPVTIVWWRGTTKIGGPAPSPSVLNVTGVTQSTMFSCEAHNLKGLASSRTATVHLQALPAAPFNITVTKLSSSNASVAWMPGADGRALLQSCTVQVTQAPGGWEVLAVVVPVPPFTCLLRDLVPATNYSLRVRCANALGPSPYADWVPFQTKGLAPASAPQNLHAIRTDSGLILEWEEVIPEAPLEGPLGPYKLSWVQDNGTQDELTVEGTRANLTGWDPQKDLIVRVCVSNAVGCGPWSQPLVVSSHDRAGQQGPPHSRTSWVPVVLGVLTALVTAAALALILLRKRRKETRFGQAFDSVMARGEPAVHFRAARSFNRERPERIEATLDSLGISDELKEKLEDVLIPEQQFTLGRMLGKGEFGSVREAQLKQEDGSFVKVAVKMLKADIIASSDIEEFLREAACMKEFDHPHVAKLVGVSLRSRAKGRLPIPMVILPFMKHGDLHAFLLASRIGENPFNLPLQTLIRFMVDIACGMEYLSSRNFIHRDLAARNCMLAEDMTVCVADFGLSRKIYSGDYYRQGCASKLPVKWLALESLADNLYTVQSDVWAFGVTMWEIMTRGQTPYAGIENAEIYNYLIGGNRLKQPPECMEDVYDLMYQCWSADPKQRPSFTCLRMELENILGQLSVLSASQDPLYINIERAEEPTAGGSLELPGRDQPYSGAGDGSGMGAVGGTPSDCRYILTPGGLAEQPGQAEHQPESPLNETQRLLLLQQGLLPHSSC", "test": "SelectScreen Z'LYTE", "type": "biochemical", "outline": "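SelectScreen broad panel; activity (Z'LYTE, Adapta) plus binding formats. ATP: Km app for CSF1R Z'LYTE; 10 for CAMK1 Adapta. Readout = % per kinase.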", "data": [{"compound": "CN(C(=O)CN1CCOCC1)c1ccc2sc3c(-c4cccc5c(=O)cc(N6CC7CCC(C6)O7)oc45)cccc3c2c1", "note": "[NU5455]", "values": [{"measurement": "inhibition at 1 µM", "value": -5.1, "unit": "%"}]}]}
